Measured values from patent publication US20180092894A1, “TREATMENT OF EOSINOPHILIC INFLAMMATORY DISEASE” (Northwestern University, priority 2016, published 2018).

Columns and labels:
Type in all cases: cell-based, human
[1] = tested on: IL-13-induced eotaxin-3 protein secretion in BEAS-2B cells; assay: IL-13-induced eotaxin-3 protein secretion in BEAS-2Bs (ELISA); conditions: for effect on IL-13-induced eotaxin-3 protein secretion: 2 h pretreatment (1-50 μM), IL-13 5 ng/ml 48 h
Protocol: (§1) BEAS-2B, a human bronchial epithelial cell line transformed with a hybrid adenovirus 12-simian virus 40 was obtained from ATCC (CRL-9609, Manassas, Va.). Primary HNECs were collected by epithelial scraping of IT and NP and cultured. For cytokine (Peprotech, Rocky Hill, N.J.) stimulation, submerged cultured cells were treated with 1-100 ng/ml IL-13, 10 ng/ml IFN-γ, 100 ng/ml TNF or 50 ng/ml IL-17 for 6 h or 48 h. To study the effects of PPIs (Sigma-Aldrich, St Louis, Mo.) on cytokine-induced chemokines, cells were pretreated for 2 h with acid-activated omeprazole (0.1-50 μM) or other PPIs: lansoprazole, rabeprazole, pantoprazole, and esomeprazole (1-50 μM) prior to stimulation with 5 ng/ml IL-13. Additionally, SCH-28080 (1-50 μM; Sigma-Aldrich) was used with the same protocol. In experiments altering extracellular K^+ concentration ([K^+]e), modified Ringer's solution that contained different contents of K^+ (0-11.2 mM KCl, Table 4) was used as culture media. For mRNA stability assessment, actinomycin D (3 μg/ml, Sigma-Aldrich) was used and eotaxin-3 mRNA was measured using real-time PCR. Supernatants, whole cell lysates, and total RNAs were harvested for further analysis.
(§2) Eotaxin-1, eotaxin-2, and eotaxin-3 protein concentrations in supernatants were determined with the appropriate ELISA kits.

[2] = tested on: pSTAT6; assay: IL-13-induced STAT6 phosphorylation in BEAS-2Bs (Western blot)
Protocol: FIGS. 6A-6D. Effects of omeprazole on IL-13-induced STAT6 phosphorylation and eotaxin-3 mRNA stability. FIG. 6A, In IL-13-stimulated BEAS-2Bs with omeprazole or vehicle, pSTAT6 and total STAT6 protein expression were measured by using Western blots. FIG. 6B, Semi-quantitative densitometry data for A (Mean±SEM, n=3-6). FIG. 6C, Experimental protocol for eotaxin-3 mRNA stability assessment using real-time PCR. FIG. 6D, Relative eotaxin-3 mRNA expression levels following treatment with actinomycin D and/or omeprazole. mRNA levels of eotaxin-1, eotaxin-2, eotaxin-3, CXCL1, CXCL10, ATP12A, and ATP4A in total RNAs isolated from cells were measured using quantitative real-time PCR. Western blots were performed to assess total signal transducer and activator of transcription 6 (STATE), phosphorylated-STAT6 (pSTAT6) and ATP12A protein in whole cell lysates (ref. 38; incorporated by reference in its entirety).

[3] = tested on: IFN-γ-induced CXCL-10 (IP-10); assay: IFN-γ-induced CXCL10 (IP-10) mRNA expression in BEAS-2B cells; conditions: PPI 5 μM 2 h, IFN-γ 10 ng/ml 6 h
Protocol: (§3) FIG. 9. […] Cells were pretreated with various PPIs for 2 h and stimulated for 6 h with IFN-γ (10 ng/ml), TNF (100 ng/ml) or IL-17 (50 ng/ml). IFN-γ-induced CXCL10 (IP-10), TNF-α-induced eotaxin-1, and IL-17-induced CXCL1 mRNA expression levels in total RNA from cells were measured by using real-time PCR. Data represent means±SEM compared with vehicle-treated/cytokine-stimulated cells. O, omeprazole; L, lansoprazole; R, rabeprazole; P, pantoprazole; E, esomeprazole all at 5 μM
as §1
(§4) mRNA levels of eotaxin-1, eotaxin-2, eotaxin-3, CXCL1, CXCL10, ATP12A, and ATP4A in total RNAs isolated from cells were measured using quantitative real-time PCR. Western blots were performed to assess total signal transducer and activator of transcription 6 (STATE), phosphorylated-STAT6 (pSTAT6) and ATP12A protein in whole cell lysates (ref. 38; incorporated by reference in its entirety).

[4] = tested on: IL-17-induced CXCL-1; assay: IL-17-induced CXCL1 mRNA expression in BEAS-2B cells; conditions: PPI 5 μM 2 h, IL-17 50 ng/ml 6 h
Protocol: as §3, §1, §4

[5] = tested on: IL-13-induced eotaxin-3 protein secretion in HNECs; assay: IL-13-induced eotaxin-3 protein secretion in HNECs (ELISA)
Protocol: as §1, §2

[6] = tested on: TNF-α-induced eotaxin-1; assay: TNF-α-induced eotaxin-1 mRNA expression in BEAS-2B cells; conditions: PPI 5 μM 2 h, TNF 100 ng/ml 6 h
Protocol: as §3, §1, §4

[7] = tested on: IL-13-induced intracellular alkalinization in BEAS-2B cells (ngH,K-ATPase); assay: Intracellular pH (pHi) imaging, pHrodo Green, IL-13-stimulated BEAS-2Bs; conditions: up to 1 h after IL-13, spectrofluorometry
Protocol: The pH-sensitive dye, pHrodo® Green AM intracellular pH indicator (Life Technologies) that increases its fluorescence with decreasing pHi was used (ref 39; incorporated by reference in its entirety). Cells cultured in glass bottom microwell dishes (MatTek, Ashland, Mass.) were pre-treated with omeprazole or vehicle prior to 6 h IL-13 stimulation. Then cells were incubated with dye (5 μM) with live cell imaging solution (Life Technologies) at 37° C. for 30 minutes per manufacturer's instructions. Spinning disk confocal microscopy for live cells imaging was performed with Andor XDi Revolution (Andor Technologies, Belfast, UK). Fluorescence intensity was measured in 150 cells using Image J software (National Institutes of Health, Bethesda, Md.). For kinetic experiments, fluorescence intensity of cells cultured in 96-well plates with omeprazole, SCH-28080 or matched vehicle was measured at various times before and after IL-13 stimulation up to 1 h using the SpectraMax® Gemini EM Microplate Spectrofluorometer (Molecular devices, Sunnyvale, Calif.) at 485/538 nm (excitation/emission).

[8] = 5 μM omeprazole, 2 h pretreatment, IL-13 48 h

## COc1ccc2[nH]c([S+]([O-])Cc3ncc(C)c(OC)c3C)nc2c1 (stereo not shown) [omeprazole, 5- or 6-methoxy-2-{[(4-methoxy-3,5-dimethylpyridin-2-yl)methyl]sulfinyl}-1H-ben-zimidazole]
[1]
  lowest concentration significantly inhibiting IL-13-induced eotaxin-3 protein secretion: 5 µM
[1]; [8]
  IL-13-induced eotaxin-3 protein secretion was reduced: 57.9%
[2]
  IL-13-induced pSTAT6: not significantly inhibited
[3]
  IFN-γ-induced CXCL-10 (IP-10) mRNA expression: did not inhibit
[4]
  IL-17-induced CXCL-1 mRNA expression: did not inhibit
[5]
  lowest concentration significantly inhibiting IL-13-induced eotaxin-3 protein secretion: 1 µM
[5]; [8]
  IL-13-induced eotaxin-3 protein secretion was reduced: 37.1%
[6]
  TNF-α-induced eotaxin-1 mRNA expression: did not inhibit

## COc1ccnc(C[S+]([O-])c2nc3ccc(OC(F)F)cc3[nH]2)c1OC (stereo not shown) [pantoprazole]
[3]
  IFN-γ-induced CXCL-10 (IP-10) mRNA expression: did not inhibit
[4]
  IL-17-induced CXCL-1 mRNA expression: did not inhibit
[6]
  TNF-α-induced eotaxin-1 mRNA expression: did not inhibit

## COc1ccc2nc([S@@+]([O-])Cc3ncc(C)c(OC)c3C)[nH]c2c1 [esomeprazole, S-5-methoxy-2-{(4-methoxy-3,5 dimethylpyridin-2-yl)methylsufinyl]-3H-benzoimidazole]
[1]
  effect on IL-13-induced eotaxin-3 protein secretion: dose-dependent inhibitory effects
[3]
  IFN-γ-induced CXCL-10 (IP-10) mRNA expression: did not inhibit
[4]
  IL-17-induced CXCL-1 mRNA expression: did not inhibit
[6]
  TNF-α-induced eotaxin-1 mRNA expression: did not inhibit

## Cc1c(OCC(F)(F)F)ccnc1C[S+]([O-])c1nc2ccccc2[nH]1 (stereo not shown) [lansoprazole]
[1]
  effect on IL-13-induced eotaxin-3 protein secretion: dose-dependent inhibitory effects
[3]
  IFN-γ-induced CXCL-10 (IP-10) mRNA expression: did not inhibit
[4]
  IL-17-induced CXCL-1 mRNA expression: did not inhibit
[6]
  TNF-α-induced eotaxin-1 mRNA expression: did not inhibit

## COCCCOc1ccnc(C[S+]([O-])c2nc3ccccc3[nH]2)c1C (stereo not shown) [rabeprazole, 2-([4-(3-methoxypropoxy)-3-methylpyridin-2-yl]methylsulfinyl)-1H-benzo(d)-imidazole]
[1]
  effect on IL-13-induced eotaxin-3 protein secretion: dose-dependent inhibitory effects
[3]
  IFN-γ-induced CXCL-10 (IP-10) mRNA expression: did not inhibit
[4]
  IL-17-induced CXCL-1 mRNA expression: did not inhibit
[6]
  TNF-α-induced eotaxin-1 mRNA expression: did not inhibit

## Cc1nc2c(OCc3ccccc3)cccn2c1CC#N [SCH-28080]
[1]
  effect on IL-13-induced eotaxin-3 protein secretion: significantly inhibited
[7]
  IL-13-induced intracellular alkalinization, kinetic studies: blunted
